The values below are quoted from earlier work in US20160095850A1, “METHODS AND COMPOSITIONS FOR TREATMENT OF HIV INFECTION” (COOPER HUMAN SYSTEMS LLC, priority 2013, published 2016).

One may read the EC50 as the midpoint of the concentration-response curve. Broadly, the IC50 is the concentration at which inhibition is half-maximal.

For data set [1] the following is noted: human, in vivo.
For a further data set, the system named is A549 cells. The settings on record: read-out: EC50, dose-dependent increase in acetylated histone levels.
Data set [2] relates to HDAC activity in HeLa extracts. The settings on record: read-out: IC50 for inhibition of HDAC activity.
A further data set deals with HDAC3 (Homo sapiens, UniProt O15379).
The target in the next data set is T1, HDAC8 (Homo sapiens, UniProt Q9BY41).
T1 sequence (Q9BY41 1-377): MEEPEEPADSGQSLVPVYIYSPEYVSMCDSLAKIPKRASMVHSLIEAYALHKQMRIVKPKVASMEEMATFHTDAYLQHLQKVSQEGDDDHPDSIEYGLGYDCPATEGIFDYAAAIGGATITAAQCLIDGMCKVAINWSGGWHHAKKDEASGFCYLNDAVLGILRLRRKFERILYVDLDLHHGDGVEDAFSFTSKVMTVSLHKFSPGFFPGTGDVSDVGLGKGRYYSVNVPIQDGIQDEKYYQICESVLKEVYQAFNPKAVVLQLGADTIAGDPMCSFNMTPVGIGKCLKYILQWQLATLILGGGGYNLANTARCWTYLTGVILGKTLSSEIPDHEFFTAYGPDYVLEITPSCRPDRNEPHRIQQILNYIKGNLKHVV

Data set [3] deals with HIV RNA expression in CD4 T cells.
For data set [4], the system named is HIV-RNA in resting CD4 T cells. To be noted: single dose of 400 mg.

Chain of HDAC3 (O15379 whole entry): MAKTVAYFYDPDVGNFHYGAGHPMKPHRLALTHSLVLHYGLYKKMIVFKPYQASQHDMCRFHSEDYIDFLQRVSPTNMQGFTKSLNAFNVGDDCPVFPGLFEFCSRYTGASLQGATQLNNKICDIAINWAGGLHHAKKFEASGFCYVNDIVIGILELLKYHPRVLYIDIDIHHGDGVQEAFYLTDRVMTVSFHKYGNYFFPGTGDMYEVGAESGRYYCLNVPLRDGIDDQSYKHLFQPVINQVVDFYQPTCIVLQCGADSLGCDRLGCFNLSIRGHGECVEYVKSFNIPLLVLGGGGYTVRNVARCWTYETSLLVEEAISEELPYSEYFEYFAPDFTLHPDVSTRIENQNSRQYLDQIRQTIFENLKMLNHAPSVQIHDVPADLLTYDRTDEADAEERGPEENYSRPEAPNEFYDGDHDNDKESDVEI
Chain of HDAC3 (Q9Y618 395-489 partner limits assumed): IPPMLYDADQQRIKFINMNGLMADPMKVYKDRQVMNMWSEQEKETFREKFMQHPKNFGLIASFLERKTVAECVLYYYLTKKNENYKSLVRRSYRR

Take `NCCCCN(Cc1nc2ccccc2[nH]1)[C@H]1CCCc2cccnc21` [AMD070]: the “median estimated terminal half-life” value in [1] was 7.6 to 12.6 h. Turning to `Nc1ccccc1NC(=O)CCCCCCC(=O)Nc1ccccc1` [BML-210], the EC50 in the data set with A549 cells was 36 µM. Also, the IC50 in data set [2] was 80 µM. As for `Cc1cc(Cl)ccc1OCCCC(=O)NO` [Droxinostat], the concentration for half-maximal inhibition (IC50) on HDAC3 was 16.9 µM; on HDAC8, 1.46 µM; with other HDAC members, over 20 µM. As for `O=C(CCCCCCC(=O)NO)NO` [SBHA, Suberohydroxamic acid], the IC50 on HDAC3 is 0.3 µM. Turning to `O=C(CCCCCCC(=O)Nc1ccccc1)NO` [Vorinostat, suberoylanilide hydroxamic acid], the “course of the induction of HIV RNA” value in [3] is “transient and diminished after 24 hours”. Besides, the “evaluated subjects with significantly increased expression of HIV-RNA in isolated resting CD4 T cells” value in [4] is recorded as 8 of 8. Consider “IL-15: cytokine promoting activation and maintenance of NK and CD8 T effector memory cells”, for which the “expansion of CD8 T(EM) cells in the peripheral blood” value with CD8 T(EM) cells (20 μg/kg/d by continuous intravenous infusion for 10 days) is on record as 100 fold. Moreover, the “expansion of CD8 T(EM) cells” value in the data set with CD8 T(EM) cells (20-40 μg/kg/d by subcutaneous injection) is on record as 10 fold.
